Source: patent US7053077B1, “Use of biogenic estrogen sulfamates for hormone replacement therapy” (Schering AG, priority 1998, dated 2006)

How the values were obtained:
[1] = women; cited from earlier work
bone [2] = settings: postmenopausal women, very high oral dosages; cited from earlier work
bone [3] = settings: uniform active ingredient levels maintained in the blood; cited from earlier work
liver = settings: relative to anti-gonadotropic properties; cited from earlier work
ovariectomized rats = assay: Oral estrogenic action in ovariectomized rats; format: in vivo
Procedure: (§1) These release-processes were ended after 24 hours.

[4] = Blood levels of estradiol and estrone in ovariectomized rats after oral treatment; format: in vivo
Procedure: as §1

[5] = Plasma estrogen levels after one-time oral administration in postmenopausal women; format: in vivo
Source text: A “pool” of estrone sulfate is produced in the blood by EV. From the latter is released estrone by hydrolysis, a small proportion of which is in turn metabolized into estradiol. […] Estrone sulfate is in this case only the main metabolite of the estrogens that are produced from the sulfamate.

[6] = Procedure: In the examples below, the determination of the plasma levels of the estrogens with validated methods that are known and acknowledged in the art was performed.
endometrium = assay: Growth effect on the endometrium after daily low-dose treatment; format: in vivo, postmenopausal women; settings: daily 0.1 mg, at the end of treatment

## C[C@]12CC[C@@H]3c4ccc(O)cc4CC[C@H]3[C@@H]1C[C@@H](O)[C@@H]2O [estriol]
[1]
  half-life: 1.5 to 5.3 h
Bone [2]
  osteoprotective effect: not osteoporectively effective
Bone [3]
  action in the bone after ovariectomy: protective action in the bone

## C#C[C@]1(O)CC[C@H]2[C@@H]3CCc4cc(O)ccc4[C@H]3CC[C@@]21C [EE, ethinylestradiol]
liver
  estrogenic activity in the liver compared with orally administered natural estrogens: 4–18 times

## estradiol sulfamate
Ovariectomized rats; oral treatment
  oral estrogenic action: strong oral estrogenic action
Ovariectomized rats; very high dosages
  extension of the estrogen actions: did not result in an extension of the estrogen actions
[4]
  blood levels of estradiol and estrone in comparison to estradiol in an equimolar dose: higher and prolonged blood levels of estradiol and estrone
  end of release processes (estradiol, estrone): ≤ 24 h
[5]; one-time oral 2 mg, 24 hours, postmenopausal women
  estrone levels 24 hours after administration: higher after estradiol sulfamate than after EV
[5]; one-time oral 2 mg, 48 hours, postmenopausal women
  estrone sulfate levels 48 hours after administration: higher after estradiol sulfamate than after EV
[5]; one-time oral 2 mg, one week, postmenopausal women
  estradiol blood levels one week after treatment: clearly exceed the starting values
[5]; one-time oral 2 mg, postmenopausal women (FIG. 1)
  increase of estrone sulfate levels in plasma: increase
[5]; one-time oral 2 mg, postmenopausal women (FIG. 2)
  increase of estrone levels in plasma: persists for a long time
[5]; oral use (FIG. 4)
  level of estrogen sulfate in comparison to EV: very low in comparison to EV
[5]; oral use, compared with EV (FIG. 4)
  release (surface under the curve) of estrone: altogether higher release
[5]; three postmenopausal women, one-time 2 mg, over 600 hours (FIG. 5)
  average estrone sulfate levels: clear increase compared to the starting values
[5]; women, oral
  estrone sulfate increase compared with transdermal therapy: behave comparably
[5]; women, oral, at comparable estrone and estradiol levels in the blood
  induced estrone sulfate levels relative to estradiol valerate: about 10 times lower
[6]; daily 0.1 mg, after last of 14 administrations
  persistence of estrone sulfate increase in plasma after the last administration: had not yet disappeared even after six days
[6]; in vivo
  estrone levels in the plasma: Relevant elevated estrone levels
  estrone sulfate level at the end of the treatment: clear increases
  estrone sulfate level in the first 24 hours after beginning of treatment: no clear increases
endometrium
  growth effect on the endometrium relative to the starting value: considerable growth effect on the endometrium
